Values belong to the compound of their own block, whether it stands above or below them.
Columns and labels:
Assay in all cases: probe loading in HEK293T, FLAG IP, TAMRA click, in-gel fluorescence
Type in all cases: cell-based
Settings in all cases: 15 µM, fed as free acid and activated to the CoA ester in cells; covalent thioester
ZDHHC11 = target: T1, ZDHHC11 (Homo sapiens, UniProt Q9H8X9, M181A)
T1 construct: N-terminal 3xFLAG tag; expressed in HEK293T, anti-FLAG immunoprecipitated
T1 sequence (Q9H8X9 1-412 M181A): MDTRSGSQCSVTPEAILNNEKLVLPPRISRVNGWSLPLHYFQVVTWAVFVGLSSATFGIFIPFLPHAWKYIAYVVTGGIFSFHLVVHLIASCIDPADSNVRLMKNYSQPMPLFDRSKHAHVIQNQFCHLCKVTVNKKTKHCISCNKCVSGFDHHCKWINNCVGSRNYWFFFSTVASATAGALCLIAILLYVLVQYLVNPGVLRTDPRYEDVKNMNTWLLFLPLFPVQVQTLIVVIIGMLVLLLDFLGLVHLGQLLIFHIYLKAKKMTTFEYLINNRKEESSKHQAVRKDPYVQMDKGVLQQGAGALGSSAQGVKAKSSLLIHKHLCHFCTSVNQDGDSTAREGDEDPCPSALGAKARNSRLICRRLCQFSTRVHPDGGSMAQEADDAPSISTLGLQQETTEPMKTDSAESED
From the text: probe loading in HEK293T, FLAG IP, TAMRA click, in-gel fluorescence on ZDHHC11 | ZDHHC11(M181A)/16-cPr

ZDHHC7 = target: T2, ZDHHC7 (Homo sapiens, UniProt Q9NXF8, L57G)
T2 construct: N-terminal 3xFLAG tag; expressed in HEK293T, anti-FLAG immunoprecipitated
T2 sequence (Q9NXF8 1-308 L57G): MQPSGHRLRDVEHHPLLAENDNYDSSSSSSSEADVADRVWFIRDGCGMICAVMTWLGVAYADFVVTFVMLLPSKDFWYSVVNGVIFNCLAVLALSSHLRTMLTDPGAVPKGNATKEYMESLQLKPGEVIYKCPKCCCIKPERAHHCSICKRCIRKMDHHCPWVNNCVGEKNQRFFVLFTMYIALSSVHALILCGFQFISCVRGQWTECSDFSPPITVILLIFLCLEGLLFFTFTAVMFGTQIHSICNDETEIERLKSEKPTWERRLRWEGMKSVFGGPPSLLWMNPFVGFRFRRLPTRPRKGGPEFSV
From the text: probe loading in HEK293T, FLAG IP, TAMRA click, in-gel fluorescence on ZDHHC7 | ZDHHC7(L57G)/20-Bz

ZDHHC3 = target: T3, ZDHHC3 (Homo sapiens, UniProt Q9NYG2, I182G)
T3 construct: N-terminal 3xFLAG tag; expressed in HEK293T, anti-FLAG immunoprecipitated
T3 sequence (Q9NYG2 1-299 I182G): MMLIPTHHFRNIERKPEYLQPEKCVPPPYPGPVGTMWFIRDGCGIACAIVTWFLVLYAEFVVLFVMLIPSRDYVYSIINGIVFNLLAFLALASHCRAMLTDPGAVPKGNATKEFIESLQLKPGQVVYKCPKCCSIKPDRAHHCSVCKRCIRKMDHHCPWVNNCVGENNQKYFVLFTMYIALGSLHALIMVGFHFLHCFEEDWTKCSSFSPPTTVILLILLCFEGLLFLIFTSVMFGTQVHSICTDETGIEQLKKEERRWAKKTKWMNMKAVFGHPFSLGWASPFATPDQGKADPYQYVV

ZDHHC15 = target: T4, ZDHHC15 (Homo sapiens, UniProt Q96MV8, Y184G)
T4 construct: N-terminal 3xFLAG tag; expressed in HEK293T, anti-FLAG immunoprecipitated
T4 sequence (Q96MV8 1-337 Y184G): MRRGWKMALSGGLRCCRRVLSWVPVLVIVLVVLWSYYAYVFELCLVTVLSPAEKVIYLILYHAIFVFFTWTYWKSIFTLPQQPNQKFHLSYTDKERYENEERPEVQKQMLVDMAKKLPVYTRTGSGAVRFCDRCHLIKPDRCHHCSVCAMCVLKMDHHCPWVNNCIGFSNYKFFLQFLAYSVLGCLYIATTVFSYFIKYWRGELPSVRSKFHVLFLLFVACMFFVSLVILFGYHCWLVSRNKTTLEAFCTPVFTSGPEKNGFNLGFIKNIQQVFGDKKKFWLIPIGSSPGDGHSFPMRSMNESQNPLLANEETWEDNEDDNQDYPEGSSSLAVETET
From the text: probe loading in HEK293T, FLAG IP, TAMRA click, in-gel fluorescence on ZDHHC15 | ZDHHC15(Y184G)/20-cPr

probe loading in HEK293T, FLAG IP, TAMRA click, in-gel fluorescence (ZDHHC11): ZDHHC11(M181A)/16-cPr
Compound: C#CCN(CCCCCCCCCCCC(=O)O)C(=O)C1CC1 [6b, 12-(N-(Prop-2-yn-1-yl)cyclopropanecarboxamido)dodecanoic acid]

probe loading in HEK293T, FLAG IP, TAMRA click, in-gel fluorescence (ZDHHC7): ZDHHC7(L57G)/20-Bz
Compound: C#CCN(CCCCCCCCCCCCCCCC(=O)O)C(=O)c1ccccc1 [6i, 16-(N-(Prop-2-yn-1-yl)benzamido)hexadecanoic acid]

probe loading in HEK293T, FLAG IP, TAMRA click, in-gel fluorescence (ZDHHC15): ZDHHC15(Y184G)/20-cPr
Compound: C#CCN(CCCCCCCCCCCCCCCC(=O)O)C(=O)C1CC1 [6h, 16-(N-(Prop-2-yn-1-yl)cyclopropanecarboxamido)hexadecanoic acid]
probe loading in HEK293T, FLAG IP, TAMRA click, in-gel fluorescence (ZDHHC3): four additional optimized mutant/probe pairs: ZDHHC3(I182G)/20-cPr
